Source: patent US11795144B2, “Inhibitors of RAC1 and uses thereof for treating cancers” (INSTITUT NATIONAL DE LA SANTE ET DE LA RECHERCHE MEDICALE …, priority 2017, dated 2023)
“Also recorded” adds a separate entry of the source.

Experiments:
RAC1 = RAC1 (Homo sapiens, UniProt P63000)
[1] = Pharmacokinetics after intraperitoneal injection; format: in vivo, male C57BL6 adult mice; conditions: male, C57BL6, mouse, plasma; IP route, mice
Method: FIG. 5 relates to the pharmacokinetics of compound (2) by analyzing kidney, brain, liver, heart, plasma samples, and lungs from male C57BL6 adult mice after intraperitonal injection. The curves of this Figure represent the concentration in μg/g over time in minutes.
(§1) To test whether compound (2) would have an acceptable therapeutic index in vivo, the pharmacokinetics of compound (2) were measured by analyzing plasma samples, brain, heart, kidney, liver and lungs from male C57BL6 adult mice after intraperitonal injection (IP) (FIG. 5). In addition, we evaluated the effect of chronic (daily during 4 weeks) IP injections of compound (2) on physiological parameters: body weight, glycemia, hepatic and renal functions (FIGS. 6 to 8).

Rac = Rac activator-induced membrane ruffling (actin reorganization) in 3T3 fibroblasts; format: cell-based; conditions: 3T3 cells, compound added 1 h before Rac activation
Text: (§2) FIGS. 1 to 3 relate to the inhibition of the Rac-induced cell functions by compound (2) (or A4.1). […] Ruffles are indicated by arrows (left panel). Percentages of cells with ruffles were quantified (right panel). Results shown are representative of 3 independent experiments. […] Left panel, representative records with arrows indicating the cell location at different times. Right panel, quantification of cell speed in each experimental conditions. Results shown are representative of 2 independent experiments. […] Lower panel, quantification of cell adhesion. Results shown are representative of 3 independent experiments.
(§3) cDNA coding for constitutive active Rac1 (Rac^V12-RFP) were transfected in NIH3T3 with jetPEI (Polyplus transfection) according to the manufacturer's instructions. After treatments, fibroblasts were fixed with 4% paraformaldehyde in PBS, permeabilized in PBS 0.5% Triton X-100, and incubated with 130 μg/mL of FITC-conjugated phalloidin (Sigma) to visualize F-actin. After staining, images were captured by a fluorescence microscope (Nikon). The actin cytoskeleton organization was analyzed to observe Rac1-dependent ruffle formation.

3T3 cells = assay: Unidirectional cell migration (cell speed); format: cell-based
Text: Percentages of cells with ruffles were quantified (right panel). Results shown are representative of 3 independent experiments. […] Left panel, representative records with arrows indicating the cell location at different times. Right panel, quantification of cell speed in each experimental conditions. Results shown are representative of 2 independent experiments. […] Lower panel, quantification of cell adhesion. Results shown are representative of 3 independent experiments.
Cells (1000/well) were seeded in a 96 well plate with […] fibronectin stripes (CytooPlates Motility, CYTOO) in medium with 1% SVF and allowed to spread for 4 hours before capturing time-lapse images for 24 hours (image/10 minutes) on a Widefield Leica DMI 6000B drove with Metamorph software. Cells speed was measured with ImageJ software.

MDA-MB-468 = assay: Cancer cell invasion in 3D gel; format: cell-based; conditions: 10 μM, after 48 h
Method: (§4) FIG. 4 relates to the inhibition of the Rac-dependent cell functions involved in cancer cells by (2). FIG. 4A: Breast cancer cell line MDA-MB-468 and primary human fibroblast from breast cancer tumors were seeded in 3D-gel containing or not (2). […] FIG. 4B: Effect of (2) on foci assay.
(§5) To confirm this hypothesis, cancer cells invasion was analyzed in 3D gel. The breast cancer cell line MDA-MB-468 or primary fibroblasts from human breast cancer were seeded in gels containing or not (2) (10 μM).

[2] = Chronic IP injections: body weight, glycemia, hepatic and renal functions; format: in vivo, mice; conditions: 25 mg/kg IP daily during 4 weeks
Method: FIGS. 6 to 8 relate to the effect of chronic IP injections of compound (2) on physiological parameters: body weight, glycemia, hepatic and renal functions.
as §1

[3] = test system: MDA-MB-468 (Luciferase+) cell line; assay: Metastasis in xenograft mouse tumor model; format: in vivo, NMRI mice; conditions: 25 mg/kg/d IP during 4 weeks after exeresis of primary tumor
Method: FIG. 9 relates to the in vivo efficiency of compound (2) to inhibit metastasis in a xenograft mouse tumor model using MDA-MB-468 (Luciferase+) cell line in 5-week-old NMRI mice.
The in vivo efficiency of compound (2) to inhibit metastasis was evaluated in a xenograft mouse tumor model using MDA-MB-468 (Luciferase+) cell line in 5-week-old NMRI mice. When the tumor volume reached 1,000 mm^3, exeresis of the primary tumor was done to monitor predominantly metastasis initiation and progression. Compound (2) was administered everyday via intraperitoneal injection (25 mg/kg/d) during 4 weeks. Then, xenografted mice were sacrified and organs were imaged (FIGS. 9A and 9B).

[4] = test system: primary fibroblasts from human breast cancer; assay: Invasion in 3D gel of primary fibroblasts from breast cancer; format: cell-based; conditions: 10 μM, after 48 h
Method: as §4, §5

Rac^V12 = molecular target: T1, Rac^V12 (Homo sapiens, UniProt P63000, G12V); assay: Ruffle formation and membrane location of constitutive active RFP-Rac^V12 in fibroblasts; format: cell-based
T1 construct: expressed in transfected cells; host or cells: NIH3T3
Method: as §3
Rac1 over activity is implicated in various steps of oncogenesis including initiation, progression, invasion, and metastasis. The ability of (2) to inhibit a constitutive active mutant of Rac1, Rac^V12 was evaluated. In control condition, expression of RFP-Rac^V12 in fibroblasts induces changes in actin cytoskeleton leading to ruffles formation (data not shown). This effect is prevented by (2) (10 μM).

MCF-7 cells = assay: Primary focus formation assay; format: cell-based; conditions: MCF-7, 3 weeks of treatment
Method: For primary focus formation assays, MCF-7 cells were plated at a density of 10^5 cells/well of a 6-well plate. Cells were allowed to reach confluency and were maintained on complete growth medium supplemented with indicated concentration of A4.1 (or compound (2)) or vehicle until focus formation occurred. Foci of transformed cells was quantitated after 21 days.
Malignant transformation of cells is typically associated with increased proliferation, loss of contact inhibition, acquisition of anchorage-independent growth potential, and the ability to form foci in culture cells. A focus formation assay was used to test whether (2) affects the clonogenic potential of breast cancer cells MCF-7. After 3 weeks of treatments, the cells's foci were fixed, stained and counted ([…]).

fibroblast = assay: Cell adhesion assay using impedance technology (xCELLigence); format: cell-based; conditions: fibroblasts pre-treated with 10 μm
Text: as §2
Cells (10000/well) were seeded in a 96 well plate microtiter xCELLigence assay plate (E-Plate) (ACEA Biosciences Inc.) and placed on the Real-time xCELLigence Cell Analyzer (Roche Applied Science) platform at 37° C. to measure the “cell index” every 5 min for a period of 6 hours. The cell index unit is defined as (Rn−Rb)/15. Rn is the cell electrode impedance of the well when it contains cells. Rb is the background impedance of the well with the media alone.

Row | SMILES | IC50 (RAC1) [nM] | Relative activity (NSC23766) (RAC1; compared with NSC23766) | bioavailability [1] [%] | Efficiency of Rac activator to induce ruffle / actin reorganization (Rac) | Efficiency of Rac activator to induce ruffle / actin reorganization (Rac; listed as A4.1) | Cell migration (cell speed) (3T3 cells) | Decrease of cell invasion compared to control (MDA-MB-468) [%] | Side effects after chronic injection [2] | Metastases [3] | Decrease of cell invasion compared to control [4] [%] | Location of Rac^V12 at the plasma membrane (Rac^V12) | Ruffles formation induced by RFP-Rac^V12 (Rac^V12; 10 μM) | IC50 (MCF-7 cells; Homo sapiens, MCF7, 504 h) [nM] | Focus diameter and focus numbers compared with control cells (MCF-7 cells) | Cell adhesion (fibroblast)
1 | COc1ccc(OC)c(NS(=O)(=O)c2ccc(NC(=O)CCCc3ccc(C)cc3)cc2)c1 [(3), N-(4-(N-(2,5-dimethoxyphenyl)sulfamoyl)phenyl)-4-(p-tolyl) Butanamide] | 0.1 | > |  |  |  |  |  |  |  |  |  |  |  |  | 
2 | COc1ccc(OC)c(NS(=O)(=O)c2ccc(NC(=O)CCSc3ccc(C)cc3)cc2)c1 [Compound (2), N-(4-(N-(2,5-dimethoxyphenyl)sulfamoyl)phenyl)-3-(p-tolylthio)propanamide] |  |  | 81.5 | strongly decreased | blocks Rac activator-induced actin reorganization | decreases cell migration; also recorded: higher inhibition | > 50 | no major side effects | decreases significantly bone, hepatic, uterine and ovarian metastases | > 50 | limits the location of Rac^V12 at the plasma membrane | prevented | 2.3 | smaller focus diameter as well as focus numbers | decreases cell adhesion; also recorded: higher inhibition
3 | CCN(CC)CCCC(C)Nc1nc(C)cc(Nc2ccc3nc(C)cc(N)c3c2)n1 (stereo not shown) [NSC23766, reference compound] |  |  |  |  |  |  |  |  |  |  |  |  |  |  | slow down
